Source: US7112610B2, “Methods for using amino acids with affinity for the α2δ-protein” (Warner-Lambert Company LLC, priority 2003, dated 2006)
Counter-ions that a name gives are not always drawn.

Experiments:
[1] = target: T1, α2δ-subunit of a calcium channel (Sus scrofa, UniProt A0A287BIN3); experiment: radioligand binding assay using [3H]-gabapentin; settings: α2δ-subunit derived from porcine brain tissue
T1 construct: the α2δ-subunit derived from porcine brain tissue was used; from tissue; host or cells: porcine brain tissue
T1 sequence (A0A287BIN3 25-1109): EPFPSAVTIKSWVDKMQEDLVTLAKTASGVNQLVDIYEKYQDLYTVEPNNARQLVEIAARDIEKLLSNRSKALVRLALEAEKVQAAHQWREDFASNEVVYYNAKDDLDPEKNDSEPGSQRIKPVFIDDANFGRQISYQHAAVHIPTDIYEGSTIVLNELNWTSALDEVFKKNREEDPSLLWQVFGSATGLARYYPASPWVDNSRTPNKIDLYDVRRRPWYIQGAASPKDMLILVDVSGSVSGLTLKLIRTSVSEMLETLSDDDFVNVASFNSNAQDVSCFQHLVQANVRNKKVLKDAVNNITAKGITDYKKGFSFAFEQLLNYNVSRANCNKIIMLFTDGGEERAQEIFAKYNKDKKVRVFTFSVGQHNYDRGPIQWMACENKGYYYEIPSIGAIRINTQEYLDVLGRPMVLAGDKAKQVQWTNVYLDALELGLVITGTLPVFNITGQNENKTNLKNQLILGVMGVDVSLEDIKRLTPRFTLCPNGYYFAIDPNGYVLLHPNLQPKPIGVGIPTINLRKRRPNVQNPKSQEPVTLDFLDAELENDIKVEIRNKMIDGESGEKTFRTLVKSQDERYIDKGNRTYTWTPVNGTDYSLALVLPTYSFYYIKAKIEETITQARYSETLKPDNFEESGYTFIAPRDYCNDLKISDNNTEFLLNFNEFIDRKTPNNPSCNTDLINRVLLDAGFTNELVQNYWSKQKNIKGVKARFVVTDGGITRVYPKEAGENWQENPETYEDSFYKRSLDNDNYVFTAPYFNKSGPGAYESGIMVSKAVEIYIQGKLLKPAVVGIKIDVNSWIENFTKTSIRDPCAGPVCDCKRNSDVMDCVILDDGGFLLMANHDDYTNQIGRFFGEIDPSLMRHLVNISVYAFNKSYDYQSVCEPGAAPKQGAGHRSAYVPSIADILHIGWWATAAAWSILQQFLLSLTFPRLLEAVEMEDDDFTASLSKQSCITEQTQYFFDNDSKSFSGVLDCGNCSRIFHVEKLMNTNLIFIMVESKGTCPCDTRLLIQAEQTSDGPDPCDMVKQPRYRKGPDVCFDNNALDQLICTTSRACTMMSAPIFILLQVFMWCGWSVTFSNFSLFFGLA
Text: The ability of compounds of the present invention to bind to the α2δ-subunit of a calcium channel can be determined using the following binding assay.
The radioligand binding assay using [^3H]-gabapentin and the α2δ-subunit derived from porcine brain tissue was used (See, Gee, Nicolas S et al. “The novel anticonvulsant drug, gabapentin (Neurontin), binds to the α2δ subunit of a calcium channel”. J. Biol. Chem. (1996), 271 (10), 5768–76). Compounds of the invention bind with nanomolar to micromolar affinity for the α2δ protein.

Row | Compound | affinity to the α2δ protein [1] [nM] | melting point [°C]
1 | CCC[C@@H](C)C[C@H](CN)C(=O)O [(2R,4R)-2-Aminomethyl-4-methyl-heptanoic Acid] | 29 | –
2 | CCC[C@@H](C)C[C@H](N)CC(=O)O.Cl | – | 142.5 to 142.7
3 | CCCC(C)(C)CC(CN)C(=O)O.Cl (stereo not drawn) [2-Aminomethyl-4,4-dimethyl-heptanoic Acid Hydrochloride] | 83 | 229.5 to 231
4 | CCC[C@@H](C)C[C@H](CN)C(=O)O (as salt: hydrochloride) [(2R,4R)-2-Aminomethyl-4-methyl-heptanoic Acid] | – | 226.3 to 228
5 | CCCC[C@@H](C)C[C@H](N)CC(=O)O (as salt: hydrochloride) | – | 142.5 to 143.3
6 | CCCC(C)(C)C[C@H](N)CC(=O)O (as salt: hydrochloride) | – | 194.2 to 195.2
7 | CCC[C@H](C)C[C@H](N)CC(=O)O [(3S,5S)-3-amino-5-methyl-octanoic acid] | 1000 | –
8 | CC(C)CCCC(C)C[C@@H](N)CC(=O)O (stereo partly drawn) [R-3-amino-5,9-dimethyl-decanoic acid] | 527 | –
